{"source": "patent US6040303A", "about": "“7-phenyl-1, 4-diazepane compounds, process for their preparation, and pharmaceutical compositions containing them” (Solvay Pharmaceuticals GmbH, priority 1997, dated 2000)", "key": {"human NK-1 receptors": {"target": "T1, human NK-1 receptors (Homo sapiens, UniProt P25103)", "T1 construct": "expressed in transfected cells; host or cells: CHO cells (membrane preparation)", "T1 sequence (P25103 whole entry)": "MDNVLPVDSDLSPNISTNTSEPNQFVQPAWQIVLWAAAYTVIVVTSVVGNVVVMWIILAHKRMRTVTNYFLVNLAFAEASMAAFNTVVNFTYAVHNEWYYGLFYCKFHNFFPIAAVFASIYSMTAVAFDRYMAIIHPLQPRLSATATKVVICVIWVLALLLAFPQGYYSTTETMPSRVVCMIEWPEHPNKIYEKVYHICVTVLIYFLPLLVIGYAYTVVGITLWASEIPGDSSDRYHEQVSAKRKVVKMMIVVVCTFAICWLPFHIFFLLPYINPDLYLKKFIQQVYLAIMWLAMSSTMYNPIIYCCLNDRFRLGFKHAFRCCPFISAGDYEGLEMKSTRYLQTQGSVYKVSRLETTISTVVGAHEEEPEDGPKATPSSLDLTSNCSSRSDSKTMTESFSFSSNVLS", "experiment": "Binding affinity to human NK-1 receptors ([3H]-substance P displacement, membranes of CHO cells)", "conditions": "membrane preparation of CHO cells expressing human NK-1 receptor, Ki calculated from IC50, read-out: In vitro binding to human NK-1 receptors - Ki value", "procedure": "1. Determination of the binding power of the test substances to NK-1 receptors.\nThe affinity of the test substances to human NK-1 receptors was measured in vitro, and the inhibition of the binding of the physiological neurokinin substance P to neurokinin-1 receptors was determined.\nThe receptor binding studies were performed with [^3 H]-substance P as ligand. For the binding test, different samples of a membrane preparation of CHO cells (=egg cells of the Chinese hamster, […]), which express the human NK-1 receptor, were incubated with a solution of the marked ligand, with the incubation mixtures containing no test substance or additions of different concentrations of test substance. Then, bound and free ligands in each of the samples were separated with the aid of glass-fiber filtration. The fraction remaining in the filter was washed several times with buffer solution, and then the radioactivity of the fraction remaining in the filter was measured using a beta scintillation counter. That concentration which effects half maximum displacement of the bound ligand was determined as IC50 of the respective test substance. From this, the corresponding inhibition constant (Ki value) of the test substance was calculated.\nThe example numbers listed for the compounds of Formula I relate to the following preparative examples."}, "[1]": {"tested_on": "stool passage through the colon of the rat", "experiment": "Influencing of colon passage: barium sulfate elimination after oral administration in rats", "type": "in vivo", "procedure": "2. Investigation of the activity of the compounds on stool passage through the colon of the rat.\nThe effects of the test substances on the transport of stools through the large intestine were examined in rats after feeding. After feeding, the beginning of elimination and the mean dwell time of barium sulfate in the colon were determined as a measurement of the colon motility leading to elimination of stools.\nAfter oral administration of the test substance, the animals were administered 2 ml of an 80% barium sulfate suspension via an artificial outlet at the caecum. The animals were placed in metabolism cages, and the faeces were collected at one hour intervals over 24 hours. The content of barium sulfate in the faeces was measured using radiography, and the beginning of elimination of barium sulfate and the mean retention time were determined therefrom. The delays in the beginning of elimination and prolongations of the mean residence time of the barium sulfate achieved in this experimental arrangement with various doses of the test substance of Example 1 can be seen from the following Table 2. The time interval up to the beginning of elimination and the mean retention time are given in percentages relative to the values obtained in a control test without test substance (=100%)."}, "[2]": {"tested_on": "visceral sensitivity to pain in rats (distension-induced contractions of the abdominal muscles)", "experiment": "Influencing of the visceral sensitivity to pain: distension-induced abdominal contractions in rats", "type": "in vivo", "conditions": "rat, subcutaneous, 20 minutes after administration", "source_text": "3. Investigation of the activity of the compounds on the visceral sensitivity to pain in rats.\nVisceral pain leads to visceral reactions which manifest themselves, inter alia, by contractions of the abdominal muscles. The number of contractions of the abdominal muscles occurring after a mechanical pain stimulus caused by distending the large intestine is thus a measurement for determining the visceral sensitivity to pain.\nThe inhibiting activity of the test substances on distension-induced abdominal contractions was tested in rats. The distension of the large intestine with an introduced balloon was used as the stimulus; the contraction of the abdominal muscles was measured as response. One hour after the sensitising of the large intestine by instillation of dilute acetic acid (0.6%, 1.5 ml), a latex balloon was introduced and inflated to 100 mbar for 10 minutes. During this time, the contractions of the abdominal muscles were counted. 20 minutes after subcutaneous administration of the test substance, this measurement was repeated. The activity of the test substance was calculated as a percentage reduction in the counted contractions compared with the control. The reductions in the number of abdominal contractions achieved with different doses of the test substance of Example 1 are listed in percentages, relative to the control values (=100%) measured before ingestion of the substance in the following Table 3."}}, "data": [{"smiles": "COc1ccccc1CN(C)CCCC(=O)N1CCC(c2ccccc2)N(C(=O)c2cc(C(F)(F)F)cc(C(F)(F)F)c2)CC1", "note": "(single isomer, unassigned; (-)) [Example 2, (-)-1-(3,5-bistrifluoromethylbenzoyl)-4-{[3-[N-(2-methoxybenzyl)-N-methyl]amino]propylcarbonyl}-7-phenyl-1,4-diazepane]", "values": [{"measurement": "Ki", "setting": "human NK-1 receptors", "result": 0.01, "unit": "µM"}]}, {"smiles": "COc1ccccc1CN(C)CCCC(=O)N1CCC(c2ccccc2)N(C(=O)c2cc(C(F)(F)F)cc(C(F)(F)F)c2)CC1", "note": "(stereo not shown) [Example 1, 1-(3,5-bistrifluoromethylbenzoyl)-4-{[3-[N-(2-methoxybenzyl)-N-methyl]amino]propylcarbonyl}-7-phenyl-1,4-diazepane]", "values": [{"measurement": "Mean retention time in % relative to control value = 100%", "setting": "[1]; 10 μmole/kg", "result": 98, "unit": "%"}, {"measurement": "Time interval until beginning of elimination in % relative to control value = 100%", "setting": "[1]; 10 μmole/kg", "result": 100, "unit": "%"}, {"measurement": "Mean retention time in % relative to control value = 100%", "setting": "[1]; 21.5 μmole/kg", "result": 106, "unit": "%"}, {"measurement": "Time interval until beginning of elimination in % relative to control value = 100%", "setting": "[1]; 21.5 μmole/kg", "result": 115, "unit": "%"}, {"measurement": "Mean retention time in % relative to control value = 100%", "setting": "[1]; 100 μmole/kg", "result": 119, "unit": "%"}, {"measurement": "Time interval until beginning of elimination in % relative to control value = 100%", "setting": "[1]; 100 μmole/kg", "result": 138, "unit": "%"}, {"measurement": "Ki", "setting": "human NK-1 receptors", "result": 0.012, "unit": "µM"}, {"measurement": "Reduction in the number of distension-induced contractions of the abdominal muscles in % relative to control value = 100%", "setting": "[2]; 10 μmole/kg", "result": 33, "unit": "%"}, {"measurement": "Reduction in the number of distension-induced contractions of the abdominal muscles in % relative to control value = 100%", "setting": "[2]; 21.5 μmole/kg", "result": 39, "unit": "%"}, {"measurement": "Reduction in the number of distension-induced contractions of the abdominal muscles in % relative to control value = 100%", "setting": "[2]; 100 μmole/kg", "result": 61, "unit": "%"}]}, {"smiles": "COc1ccccc1CNCC(=O)N1CCC(c2ccccc2)N(C(=O)c2cc(C)cc(C)c2)CC1", "note": "(stereo not shown) [Example 4, 1-(3,5-dimethylbenzoyl)-4-{[N-(2-methoxybenzyl)amino]acetyl}-7-phenyl-1,4-diazepane]", "values": [{"measurement": "Ki", "setting": "human NK-1 receptors", "result": 0.008, "unit": "µM"}]}, {"smiles": "COc1ccccc1CNCCCC(=O)N1CCC(c2ccccc2)N(C(=O)c2cc(C(F)(F)F)cc(C(F)(F)F)c2)CC1", "note": "(stereo not shown) [Example 14]", "values": [{"measurement": "Ki", "setting": "human NK-1 receptors", "result": 0.01, "unit": "µM"}]}]}
